Measured values from the supplement of paper PMC4862054.

What was measured:
Experiment in all cases: normalised response (% of control), CellTiter-Glo; higher = more viable cells (100 = DMSO, 0 = benzethonium chloride kill control)
Conditions in all cases: incubation time: 72 h
BT-474 = tested on: BT-474
Method in brief: (§1)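 Compound was dispensed into 384-well plates at 5 concentrations in 10-fold steps spanning a 10,000-fold range specific to that compound. Breast cancer cell lines were added as 20 µl suspension and left for 72 h before CellTox Green fluorescence (485/520 nm) and then CellTiter-Glo luminescence, read after 10 min at room temperature. Each reported value is the normalised signal at one concentration, with 0.1 % DMSO set at 100 and a positive kill control at 0 on each plate.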

BT-549 = tested on: BT-549
Method in brief: as §1

CAL-120 = tested on: CAL-120
Method in brief: as §1

CAL-148 = tested on: CAL-148
Method in brief: as §1

CAL-51 = tested on: CAL-51
Method in brief: as §1

CAL-85-1 = tested on: CAL-85-1
Method in brief: as §1

DU-4475 = tested on: DU-4475
Method in brief: as §1

HCC1143 = tested on: HCC1143
Method in brief: as §1

HCC1599 = tested on: HCC1599
Method in brief: as §1

HCC1937 = tested on: HCC1937
Method in brief: as §1

HDQ-P1 = tested on: HDQ-P1
Method in brief: as §1

Hs578T = tested on: Hs578T
Method in brief: as §1

MCF-10A = tested on: MCF-10A
Method in brief: as §1

MDA-MB-231 = tested on: MDA-MB-231
Method in brief: as §1

MDA-MB-436 = tested on: MDA-MB-436
Method in brief: as §1

MDA-MB-453 = tested on: MDA-MB-453
Method in brief: as §1

MDA-MB-468 = tested on: MDA-MB-468
Method in brief: as §1

MFM-223 = tested on: MFM-223
Method in brief: as §1

SK-BR-3 = tested on: SK-BR-3
Method in brief: as §1

SMILES | normalised response (BT-474) [%] | normalised response (BT-549) [%] | normalised response (CAL-120) [%] | normalised response (CAL-148) [%] | normalised response (CAL-51) [%] | normalised response (CAL-85-1) [%] | normalised response (DU-4475) [%] | normalised response (HCC1143) [%] | normalised response (HCC1599) [%] | normalised response (HCC1937) [%] | normalised response (HDQ-P1) [%] | normalised response (Hs578T) [%] | normalised response (MCF-10A) [%] | normalised response (MDA-MB-231) [%] | normalised response (MDA-MB-436) [%] | normalised response (MDA-MB-453) [%] | normalised response (MDA-MB-468) [%] | normalised response (MFM-223) [%] | normalised response (SK-BR-3) [%]
CN1CCC(COc2cnc(-c3cccc(Cn4nc(-c5cccc(C#N)c5)ccc4=O)c3)nc2)CC1 (0.1 nM) | 98.2 | 95.1 | 96.1 | 103 | 82.4 | 92.8 | 93.1 | 94.6 | 92.2 | 94.5 | 99.1 | 96.4 | 89.1 | 98.5 | 81.1 | 105 | 96.9 | 94.2 | 84.6
CN(C)C/C=C/C(=O)Nc1cc2c(Nc3ccc(F)c(Cl)c3)ncnc2cc1O[C@H]1CCOC1 [Afatinib] (0.1 nM) | 94.9 | 97.3 | 93.7 | 103 | 75 | 116 | 104 | 93.2 | 99 | 96.6 | 108 | 99.6 | 91.2 | 103 | 85.8 | 111 | 100 | 96.2 | 104
COc1cc(Nc2ncc3c(n2)-c2ccc(Cl)cc2C(c2c(F)cccc2OC)=NC3)ccc1C(=O)O [Alisertib] (1 nM) | 98.9 | 95.6 | 96.7 | 89.3 | 116 | 91.9 | 97 | 91.6 | 90.2 | 88.4 | 94.7 | 95.6 | 84 | 93.3 | 99 | 95.9 | 95.9 | 92.9 | 94.2
COc1cc(Nc2ncc3c(n2)-c2ccc(Cl)cc2C(c2c(F)cccc2OC)=NC3)ccc1C(=O)O [Alisertib] (10 nM) | 93.4 | 96 | 96.1 | 91.9 | 86.4 | 94.4 | 98.2 | 93.9 | 102 | 95.9 | 97.1 | 97 | 93 | 95.3 | 89.5 | 88.3 | 87.7 | 88.6 | 70.4
CN1CC[C@H](c2c(O)cc(O)c3c(=O)cc(-c4ccccc4Cl)oc23)[C@H](O)C1 [Alvocidib] (10 nM) | 98.7 | 102 | 92.4 | 104 | 125 | 103 | 104 | 103 | 103 | 101 | 99.2 | 102 | 110 | 101 | 106 | 112 | 99.9 | 106 | 106
Nc1nc(Cl)nc2c1ncn2[C@H]1C[C@H](O)[C@@H](CO)O1 [Cladribine] (1 nM) | 99.3 | 97.2 | 97.5 | 103 | 94.2 | 102 | 106 | 104 | 102 | 101 | 97.8 | 105 | 104 | 100 | 102 | 113 | 102 | 105 | –
Nc1ccn([C@@H]2O[C@H](CO)[C@@H](O)[C@@H]2O)c(=O)n1 [Cytarabine] (10 nM) | 97.6 | 96.8 | 96.4 | 102 | 80.4 | 99 | 99.4 | 99.3 | 90.2 | 96.5 | 107 | 114 | 112 | 99.2 | 105 | 109 | 93.8 | 107 | –
Cc1c2oc3c(C)ccc(C(=O)N[C@@H]4C(=O)N[C@H](C(C)C)C(=O)N5CCC[C@H]5C(=O)N(C)CC(=O)N(C)[C@@H](C(C)C)C(=O)O[C@@H]4C)c3nc-2c(C(=O)N[C@@H]2C(=O)N[C@H](C(C)C)C(=O)N3CCC[C@H]3C(=O)N(C)CC(=O)N(C)[C@@H](C(C)C)C(=O)O[C@@H]2C)c(N)c1=O [Dactinomycin] (1 nM) | 79.4 | 71.9 | 90.3 | 81.8 | 99.9 | 90.8 | 97 | 80.8 | 102 | 79.9 | 71.4 | 105 | 77.8 | 97.7 | 87 | 94 | 60.3 | 105 | –
COc1cccc2c1C(=O)c1c(O)c3c(c(O)c1C2=O)C[C@@](O)(C(=O)CO)C[C@@H]3O[C@H]1C[C@H](N)[C@H](O)[C@H](C)O1 [Doxorubicin] (1 nM) | 101 | 94.2 | 93.6 | 95.7 | 107 | 103 | 108 | 99.1 | 120 | 98.6 | 101 | 100 | 110 | 99.5 | 107 | 113 | 104 | 105 | –
Cc1ccc(F)c(NC(=O)Nc2ccc(-c3cccc4[nH]nc(N)c34)cc2)c1 [Linifanib] (1 nM) | 106 | 104 | 102 | 114 | 100 | 103 | 111 | 110 | 112 | 101 | 104 | 98.9 | 109 | 106 | 101 | 113 | 106 | 112 | –
CC(=O)O[C@]1(C(C)=O)CC[C@H]2[C@@H]3C=C(C)C4=CC(=O)CC[C@]4(C)[C@H]3CC[C@@]21C [Megestrol acetate] (1 nM) | 95.9 | 97.7 | 94.9 | 99.9 | 120 | 98.9 | 97.5 | 95.2 | 96.5 | 95.4 | 99.8 | 96.8 | 101 | 98.5 | 101 | 131 | 88.8 | 98 | 99.2
CC(=O)O[C@]1(C(C)=O)CC[C@H]2[C@@H]3C=C(C)C4=CC(=O)CC[C@]4(C)[C@H]3CC[C@@]21C [Megestrol acetate] (10 nM) | 102 | 100 | 98.1 | 86.9 | 83.4 | 98 | 96.6 | 104 | 105 | 95 | 104 | 96.9 | 107 | 101 | 96.3 | 103 | 107 | 97.1 | 102
S=c1[nH]cnc2nc[nH]c12 [Mercaptopurine] (10 nM) | 98.6 | 97.7 | 98.5 | 83.4 | 119 | 94.5 | 98.5 | 106 | 89.8 | 93.1 | 97.1 | 100 | 103 | 96 | 98 | 93 | 94.3 | 97.2 | 109
Clc1ccc(C(c2ccccc2Cl)C(Cl)Cl)cc1 (stereo not given) [Mitotane] (10 nM) | 93.1 | 104 | 101 | 91.2 | 104 | 106 | 103 | 101 | 132 | 99 | 97 | 103 | 96.4 | 99.8 | 89.8 | 109 | 94 | 99 | 98.1
CCN1CCN(c2ccc(Nc3cc(N(C)C(=O)Nc4c(Cl)c(OC)cc(OC)c4Cl)ncn3)cc2)CC1 [NVP-BGJ398] (0.1 nM) | 96.7 | 99.8 | 92 | 97.7 | 74.7 | 93.4 | 101 | 98.2 | 98.7 | 95.6 | 101 | 97.3 | 101 | 95.4 | 97.6 | 84.1 | 88.2 | 96.6 | 99
CCN1CCN(c2ccc(Nc3cc(N(C)C(=O)Nc4c(Cl)c(OC)cc(OC)c4Cl)ncn3)cc2)CC1 [NVP-BGJ398] (1 nM) | 94.9 | 96 | 97.2 | 96.1 | 118 | 98.3 | 99 | 98.8 | 88.4 | 104 | 101 | 103 | 108 | 95.8 | 97.7 | 97.7 | 100 | 97.1 | 108
COc1cccc2cc(-c3nc([C@H]4CC[C@H](C(=O)O)CC4)n4ncnc(N)c34)[nH]c12 [OSI-027] (10 nM) | 101 | 93.8 | 101 | 88.7 | 82.7 | 90.7 | 97.1 | 96.6 | 92.7 | 94.2 | 100 | 97.7 | 98.8 | 96 | 93.8 | 94.3 | 94.6 | 93 | 77.3
OC[C@H]1O[C@@H](n2cnc3c2N=CNC[C@H]3O)C[C@@H]1O [Pentostatin] (10 nM) | 98 | 91.2 | 98 | 102 | 78 | 102 | 104 | 98.9 | 104 | 98.2 | 100 | 106 | 99.9 | 99.2 | 97.3 | 103 | 94.4 | 101 | 101
N#CC[C@H](C1CCCC1)n1cc(-c2ncnc3[nH]ccc23)cn1 [Ruxolitinib] (10 nM) | 97 | 98.3 | 104 | 86 | 121 | 91.2 | 97.4 | 100 | 76.5 | 89.3 | 94 | 96.2 | 88.8 | 95.2 | 92.2 | 83.8 | 100 | 92.6 | 81.5
C=CC[C@@H]1/C=C(\C)C[C@H](C)C[C@H](OC)[C@H]2O[C@@](O)(C(=O)C(=O)N3CCCC[C@H]3C(=O)O[C@H](/C(C)=C/[C@@H]3CC[C@@H](O)[C@H](OC)C3)[C@H](C)[C@@H](O)CC1=O)[C@H](C)C[C@@H]2OC [Tacrolimus] (10 nM) | 105 | 101 | 97.7 | 97.4 | 110 | 99 | 105 | 103 | 102 | 100 | 100 | 103 | 103 | 100 | 106 | 109 | 97.6 | 98.8 | 119
